In PMC8457666 (Science Advances, 2021):
Numbering of substitutions follows the chain as printed.

Tests used:
WzcCDΔC [1] = target: T1, WzcCDΔC (Escherichia coli, UniProt P76387, K540M); test: isothermal titration calorimetry, one-site model; type: binding
T1 sequence (P76387 447-704 K540M limits assumed): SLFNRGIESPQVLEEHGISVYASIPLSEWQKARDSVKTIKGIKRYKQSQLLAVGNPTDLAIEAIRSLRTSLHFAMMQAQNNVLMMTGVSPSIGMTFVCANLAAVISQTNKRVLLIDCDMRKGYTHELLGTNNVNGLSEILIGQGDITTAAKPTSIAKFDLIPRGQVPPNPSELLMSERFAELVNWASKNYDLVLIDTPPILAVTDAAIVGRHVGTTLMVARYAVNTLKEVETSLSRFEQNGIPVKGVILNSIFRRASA

WzcCDΔC [2] = target: T2, WzcCDΔC (Escherichia coli, UniProt P76387); test: isothermal titration calorimetry, one-site model; type: binding
T2 sequence (P76387 447-704 limits assumed): T1 sequence (P76387 447-704 K540M limits assumed) with M94K

- Kd (WzcCDΔC [1]): 500 ± 200 nM
- Kd (WzcCDΔC [2]): 2600 ± 1100 nM
SMILES: Nc1ncnc2c1ncn2[C@@H]1O[C@H](COP(=O)(O)OP(=O)(O)O)[C@@H](O)[C@H]1O [ADP]
